According to PMC11500415, “Chemical inhibition of stomatal differentiation by perturbation of the master-regulatory bHLH heterodimer via an ACT-Like domain” (Nature Communications, 2024):

Target: T1, SCRM-MUTE (Arabidopsis thaliana, UniProt Q9M8K6)
T1 construct: MUTE (1-202); GST (N, cleaved yes); made in house; host or cells: E. coli BL21
T1 sequence (Q9M8K6 1-202): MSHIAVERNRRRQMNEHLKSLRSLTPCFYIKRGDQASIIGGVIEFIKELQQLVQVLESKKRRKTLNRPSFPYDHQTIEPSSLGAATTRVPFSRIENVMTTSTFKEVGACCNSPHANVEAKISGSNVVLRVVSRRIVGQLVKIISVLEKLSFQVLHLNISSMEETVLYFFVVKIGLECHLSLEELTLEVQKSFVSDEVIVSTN
Assay: ITC of SCRM binding to MUTE in presence of compound
Set-up: species or system A. thaliana
Conditions: for n of SCRM_MUTE binding: without 0.96; for -T△S of SCRM_MUTE binding: without 25.3 ± 0.5; for △G of SCRM_MUTE binding: without -5.2 ± 0.2; for △H of SCRM_MUTE binding: without -30.5 ± 0.6
Description: A. thaliana SCRM (1-494), ΔNSPCH (98-364), MUTE (1-202), ΔNFAMA (190-414), MUTEΔC (1-114), MUTER133A_R134A, MUTEE162A_E163A, MUTER133A_R134A_E162A_E163A, SCRM-ACTL (405-494), MUTE-ACTL (114-202), SPCH-ACTL (285-364), FAMA-ACTL (306-414), MUTE_ACTLR133A_R134A, MUTE_ACTLE162A_E163A, MUTE_ACTLR133A_R134A_E162A_E163A were cloned into pGEX-4T-1 vector with an N-terminal GST tag and a thrombin cleavage sequence. For protein expression, the constructs were transformed into E. coli strain BL21. For each transformant, a single colony was selected and incubated in 10 ml LB liquid media. The overnight-incubated E. coli suspensions were transferred to 1 L LB medium and incubated at 37 °C for around 2 h until the OD600 reached 0.4–0.6. The isopropyl β-D-1-thiogalactopyranoside ([…] of final concentration) was added to the cultures and the strains were incubated at 22 °C for a further 18 h. GST-fused proteins were purified using glutathione agarose resin. The soluble portion of the cell lysate was loaded onto a GST-Sepharose column. Nonspecifically bound proteins were removed by washing the column with 20 mM Tris pH 8.0, 200 mM NaCl. The bound GST-fused protein was eluted with 10 mm glutathione and 20 mM Tris pH 8.0, 200 mM NaCl. The GST-fused proteins were exchanged with phosphate-buffered saline buffer, and then the solution was treated with 50 μg of thrombin for 10–12 h at 16 ^οC. The GST portion of the protein was cleaved during thrombin digestion, and then the whole solution was reloaded onto the glutathione S-transferase column to obtain pure protein. The purified proteins were further purified by gel filtration on a Superdex-200 (GE) column using fast protein liquid chromatography and phosphate buffer (pH 7.2) as the eluent. The purity of the protein was checked by SDS-PAGE. For detailed lists of oligo DNA and plasmid information, see Supplementary Tables 5, 6, respectively.
Binding of the small molecule Stomidazolone (3) to SCRM, MUTE, SPCH, FAMA, MUTEΔC, MUTE_ACTL, SCRM_ACTL, SPCH_ACTL and FAMA_ACTL, MUTER133A_R134A, MUTEE162A_E163A, MUTER133A_R134A_E162A_E163A, as well as SCRM binding to MUTE in the presence and absence of Stomidazolone (3) / AYSJ1059 (5) /AYSJ1061 (6) was characterized at 30 °C using a Malvern PEAQ-ITC microcalorimeter. All the protein samples were dialyzed overnight using PBS buffer containing 2% DMSO and 1 mM DTT. Stomidazolone was dissolved in PBS buffer containing 2% DMSO and 1 mM DTT. Titrations were performed by injecting 1 × 0.5-μL and 12 × 3-μL or 1 × 0.75-μL and 18 × 2-μL or 1 × 0.2-μL and 25 × 1.3-μL aliquots of 1 mM Stomidazolone / AYSJ1059 / AYSJ1061 to 5-30 μM of protein in PBS buffer pH 7.4, containing 2% DMSO and 1 mM DTT. All titrations were carried out at least twice. The raw data were corrected using buffer and protein controls and analyzed using the software supplied by the manufacturer. See Supplementary Table 3 for details.

Row | Structure (SMILES) | n of SCRM_MUTE binding | -T△S of SCRM_MUTE binding | △G of SCRM_MUTE binding | △H of SCRM_MUTE binding
1 | Cc1ccc(C2(NS(=O)(=O)c3ccccc3)N=C(c3ccccc3)C(=O)N2S(=O)(=O)c2ccccc2)cc1 (stereo not drawn) [AYSJ1059] | 1.0 | 27.2 ± 0.6 | -6.3 ± 0.2 | -33.5 ± 0.6
2 | O=C1C(c2ccccc2)=NC(NS(=O)(=O)c2ccccc2)(c2ccc(Br)cc2)N1S(=O)(=O)c1ccccc1 (stereo not drawn) [AYSJ1061] | 1.1 | 35.3 ± 0.6 | -10.2 ± 0.2 | -45.5 ± 0.6
3 | O=C1C(c2ccccc2)=NC(NS(=O)(=O)c2ccccc2)(c2ccccc2)N1S(=O)(=O)c1ccccc1 (stereo not drawn) [Stomidazolone] | 0.91 | 5.2 ± 0.4 | -2.3 ± 0.2 | -7.5 ± 0.3
